In ChEMBL document CHEMBL1201861, “Genomics of Drug Sensitity in Cancer screening data, Wellcome Trust Sanger Institute”:

Experiments:
Assay in all cases: cells
P30-OHK = type: functional, cell-based; conditions: Homo sapiens;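 also: growth inhibition of the P30-OHK cell line, read out with a cell viability assay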
EW-13 = type: functional, cell-based; conditions: Homo sapiens;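 also: growth inhibition of EW-13 cells, read out with a cell viability assay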
SK-N-FI = type: functional, cell-based; conditions: Homo sapiens;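 also: cell viability assay measuring growth inhibition of human SK-N-FI cells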
DB = type: functional, cell-based; conditions: Homo sapiens
NY = type: functional, cell-based; conditions: Homo sapiens
KM12 = type: functional, cell-based; conditions: Homo sapiens;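 also: KM12 cell growth inhibition, read out with a cell viability assay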
CAS-1 = type: functional, cell-based; conditions: Homo sapiens;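 also: growth inhibition of CAS-1 cells, measured with a cell viability assay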
KNS-81-FD = type: functional, cell-based; conditions: Homo sapiens;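 also: growth inhibition of KNS-81-FD cells, read out with a cell viability assay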
GAK = type: functional, cell-based; conditions: Homo sapiens
NOMO-1 = type: functional, cell-based; conditions: Homo sapiens;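 also: growth inhibition of human NOMO-1 cells measured by a cell viability assay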
ML-2 = type: functional, cell-based; conditions: Homo sapiens;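 also: growth inhibition of ML-2 cells, measured with a cell viability readout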
KMOE-2 = type: functional, cell-based; conditions: Homo sapiens;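 also: growth inhibition of human KMOE-2 cells, read out with a cell viability assay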
NCI-H2228 = type: functional, cell-based; conditions: Homo sapiens;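 also: growth inhibition of human NCI-H2228 cells, read out by a cell viability assay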
ETK-1 = type: functional, cell-based; conditions: Homo sapiens;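 also: growth inhibition of human ETK-1 cells, read out with a cell viability assay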
NCI-H1395 = type: functional, cell-based; conditions: Homo sapiens;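 also: cell viability assay read-out quantifying reduced proliferation of human NCI-H1395 cells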
HD-MY-Z = type: functional, cell-based; conditions: Homo sapiens;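 also: growth inhibition of HD-MY-Z cells, read out with a cell viability assay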
DOHH-2 = type: functional, cell-based; conditions: Homo sapiens;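 also: growth inhibition of human DOHH-2 cells, read out with a cell viability assay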
LS-123 = type: functional, cell-based; conditions: Homo sapiens
RKO = type: functional, cell-based; conditions: Homo sapiens;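 also: growth inhibition of human RKO cells, read out with a cell viability assay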
UACC-257 = type: functional, cell-based; conditions: Homo sapiens
769-P = type: functional, cell-based; conditions: Homo sapiens
HH = type: functional, cell-based; conditions: Homo sapiens
EOL1 = type: functional, cell-based; conditions: Homo sapiens;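 also: growth inhibition of EoL-1 cells, read out by a cell viability assay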
QIMR-WIL = type: functional, cell-based; conditions: Homo sapiens;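 also: growth inhibition of QIMR-WIL cells, read out with a cell viability assay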
SCC-15 = type: functional, cell-based; conditions: Homo sapiens;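 also: growth inhibition of SCC-15 cells, read out with a cell viability assay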
SNB-75 = type: functional, cell-based; conditions: Homo sapiens;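 also: cell viability assay measuring growth inhibition of human SNB-75 cells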
HCE-4 = type: functional, cell-based; conditions: Homo sapiens;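 also: cell viability assay measuring inhibition of growth in the human HCE-4 cell line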
SW 954 = type: functional, cell-based; conditions: Homo sapiens;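 also: growth inhibition of SW954 human cancer cells, read out as cell viability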
LB2241-RCC = type: functional, cell-based; conditions: Homo sapiens;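 also: cell viability assay measuring how strongly the cultured human renal carcinoma line is prevented from growing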
IST-SL1 = type: functional, cell-based; conditions: Homo sapiens;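 also: growth inhibition of human IST-SL1 cells, read out with a cell viability assay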
OCI-AML2 = type: functional, cell-based; conditions: Homo sapiens;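 also: growth inhibition of OCI-AML2 cells, read out with a cell viability assay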
ES5 = type: functional, cell-based; conditions: Homo sapiens;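 also: growth inhibition of human ES5 cells, read out by a cell viability assay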
LB2518-MEL = type: functional, cell-based; conditions: Homo sapiens;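 also: growth inhibition of human LB2518-MEL cells, measured with a cell viability assay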
SNU-5 = type: functional, cell-based; conditions: Homo sapiens;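 also: cell viability readout used to measure growth inhibition in human NCI-SNU-5 cells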
GB-1 = type: functional, cell-based; conditions: Homo sapiens;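 also: growth of GB-1 cells judged by a viability assay, IC50 marks the concentration inhibiting growth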
OS-RC-2 = type: functional, cell-based; conditions: Homo sapiens;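 also: growth inhibition of human OS-RC-2 cells, measured by a cell viability assay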
OE19 = type: functional, cell-based; conditions: Homo sapiens;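 also: growth inhibition of OE19 cells, measured through a cell viability read-out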
KG-1 = type: functional, cell-based; conditions: Homo sapiens;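 also: growth inhibition of KG-1 cells, read out by a cell viability assay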
HT-144 = type: functional, cell-based; conditions: Homo sapiens
SH-4 = type: functional, cell-based; conditions: Homo sapiens;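 also: growth inhibition of SH-4 cells, read out with a cell viability assay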
C-33-A = type: functional, cell-based; conditions: Homo sapiens;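 also: cell viability assay measuring growth inhibition of C-33-A cells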
KU812 cell line = type: functional, cell-based; conditions: Homo sapiens;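 also: growth inhibition of KU812 cells, read out with a cell viability assay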
SK-LMS-1 = type: functional, cell-based; conditions: Homo sapiens;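 also: growth inhibition of human SK-LMS-1 cells, read out with a cell viability assay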
TE-9 = type: functional, cell-based; conditions: Homo sapiens;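 also: cell growth inhibition, measured with a cell viability readout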
DMS-79 = type: functional, cell-based; conditions: Homo sapiens;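 also: growth inhibition measured with a cell viability assay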
NEC8 = type: functional, cell-based; conditions: Homo sapiens;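 also: growth inhibition of human NEC8 cells, read out by a cell viability assay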
NCI-H1304 = type: functional, cell-based; conditions: Homo sapiens;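 also: growth inhibition of the cancer cell line, measured in a cell viability assay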
NCI-H1155 = type: functional, cell-based; conditions: Homo sapiens;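 also: cell growth inhibition measured by a viability assay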
CAL-12T = type: functional, cell-based, Homo sapiens; conditions: Homo sapiens, CAL-12T;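 also: growth inhibition of human CAL-12T cells, read out with a cell viability assay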
Ramos-2G6-4C10 = type: functional, cell-based; conditions: Homo sapiens;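 also: growth inhibition of the cell line, measured by a cell viability read-out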
U-87 MG = type: functional, cell-based, U-87MG ATCC; conditions: Homo sapiens;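 also: growth inhibition of the cells measured with a viability assay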
MZ2-MEL = type: functional, cell-based; conditions: Homo sapiens;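 also: growth inhibition of MZ2-MEL cells read out with a cell viability assay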
MOLT-4 = type: functional, cell-based; conditions: Homo sapiens;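 also: growth inhibition of MOLT-4 cells, determined with a cell viability readout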
MFM-223 = type: functional, cell-based; conditions: Homo sapiens
HCE-T = type: functional, cell-based; conditions: Homo sapiens;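 also: cell viability assay read-out, reporting inhibition of HCE-T cell growth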
KARPAS-45 = type: functional, cell-based; conditions: Homo sapiens;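 also: inhibition of cell line growth, read out through a viability assay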
Detroit 562 = type: functional, cell-based; conditions: Homo sapiens;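 also: growth inhibition of human Detroit 562 cells, read out by a cell viability assay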
RS4-11 = type: functional, cell-based; conditions: Homo sapiens;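 also: growth inhibition of RS4-11 cells, read out by a cell viability assay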
CTV-1 = type: functional, cell-based; conditions: Homo sapiens;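 also: growth inhibition of the cell line, read out with a cell viability assay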
GR-ST = type: functional, cell-based; conditions: Homo sapiens
TE-6 = type: functional, cell-based; conditions: Homo sapiens
COLO-792 = type: functional, cell-based; conditions: Homo sapiens
SF-539 = type: functional, cell-based; conditions: Homo sapiens

C[C@]12O[C@H](C[C@]1(O)CO)n1c3ccccc3c3c4c(c5c6ccccc6n2c5c31)CNC4=O [LESTAURTINIB]
IC50 (P30-OHK): 128 nM | IC50 (EW-13): > 2000 nM | IC50 (SK-N-FI): 1100 nM | IC50 (DB): 802 nM | IC50 (NY): > 2000 nM | IC50 (KM12): 37.8 nM | IC50 (CAS-1): > 2000 nM | IC50 (KNS-81-FD): 1480 nM | IC50 (GAK): […] | IC50 (NOMO-1): 149 nM | IC50 (ML-2): 195 nM | IC50 (KMOE-2): 617 nM | IC50 (NCI-H2228): > 2000 nM | IC50 (ETK-1): 856 nM | IC50 (NCI-H1395): 281 nM | IC50 (HD-MY-Z): 13.9 nM | IC50 (DOHH-2): 184 nM | IC50 (LS-123): > 2000 nM | IC50 (RKO): 299 nM | IC50 (UACC-257): 532 nM | IC50 (769-P): 1610 nM | IC50 (HH): 506 nM | IC50 (EOL1): 8.69 nM | IC50 (QIMR-WIL): 94.1 nM | IC50 (SCC-15): > 2000 nM | IC50 (SNB-75): 1490 nM | IC50 (HCE-4): > 2000 nM | IC50 (SW 954): 291 nM | IC50 (LB2241-RCC): 125 nM | IC50 (IST-SL1): 112 nM | IC50 (OCI-AML2): 1070 nM | IC50 (ES5): 16.5 nM | IC50 (LB2518-MEL): 405 nM | IC50 (SNU-5): > 2000 nM | IC50 (GB-1): 238 nM | IC50 (OS-RC-2): 566 nM | IC50 (OE19): > 2000 nM | IC50 (KG-1): 409 nM | IC50 (HT-144): 978 nM | IC50 (SH-4): 110 nM | IC50 (C-33-A): > 2000 nM | IC50 (KU812 cell line): 1010 nM | IC50 (SK-LMS-1): > 2000 nM | IC50 (TE-9): 415 nM | IC50 (DMS-79): > 2000 nM | IC50 (NEC8): 268 nM | IC50 (NCI-H1304): > 2000 nM | IC50 (NCI-H1155): 912 nM | IC50 (CAL-12T): 870 nM | IC50 (Ramos-2G6-4C10): 206 nM | IC50 (U-87 MG): > 2000 nM | IC50 (MZ2-MEL): 236 nM | IC50 (MOLT-4): 70.2 nM | IC50 (MFM-223): 333 nM | IC50 (HCE-T): 179 nM | IC50 (KARPAS-45): 52.4 nM | IC50 (Detroit 562): 236 nM | IC50 (RS4-11): 61.9 nM | IC50 (CTV-1): 189 nM | IC50 (GR-ST): 494 nM | IC50 (TE-6): > 2000 nM | IC50 (COLO-792): > 2000 nM | IC50 (SF-539): 175 nM

C[C@]1(c2nc3c(C(N)=O)cccc3[nH]2)CCCN1 [VELIPARIB]
IC50 (P30-OHK): > 5000 nM | IC50 (EW-13): > 5000 nM | IC50 (SK-N-FI): > 5000 nM | IC50 (DB): > 5000 nM | IC50 (NY): > 5000 nM | IC50 (KM12): > 5000 nM | IC50 (CAS-1): > 5000 nM | IC50 (KNS-81-FD): > 5000 nM | IC50 (GAK): > 5000 nM | IC50 (NOMO-1): > 5000 nM | IC50 (ML-2): > 5000 nM | IC50 (KMOE-2): > 5000 nM | IC50 (NCI-H2228): > 5000 nM | IC50 (ETK-1): > 5000 nM | IC50 (NCI-H1395): > 5000 nM | IC50 (HD-MY-Z): > 5000 nM | IC50 (DOHH-2): > 5000 nM | IC50 (LS-123): > 5000 nM | IC50 (RKO): > 5000 nM | IC50 (UACC-257): > 5000 nM | IC50 (769-P): > 5000 nM | IC50 (HH): > 5000 nM | IC50 (EOL1): 1080 nM | IC50 (QIMR-WIL): > 5000 nM | IC50 (SCC-15): > 5000 nM | IC50 (SNB-75): > 5000 nM | IC50 (HCE-4): > 5000 nM | IC50 (SW 954): > 5000 nM | IC50 (LB2241-RCC): > 5000 nM | IC50 (IST-SL1): > 5000 nM | IC50 (OCI-AML2): > 5000 nM | IC50 (ES5): > 5000 nM | IC50 (LB2518-MEL): > 5000 nM | IC50 (SNU-5): 3130 nM | IC50 (GB-1): > 5000 nM | IC50 (OS-RC-2): > 5000 nM | IC50 (OE19): > 5000 nM | IC50 (KG-1): > 5000 nM | IC50 (HT-144): > 5000 nM | IC50 (SH-4): > 5000 nM | IC50 (C-33-A): > 5000 nM | IC50 (KU812 cell line): > 5000 nM | IC50 (SK-LMS-1): > 5000 nM | IC50 (TE-9): > 5000 nM | IC50 (DMS-79): > 5000 nM | IC50 (NEC8): > 5000 nM | IC50 (NCI-H1304): > 5000 nM | IC50 (NCI-H1155): > 5000 nM | IC50 (CAL-12T): > 5000 nM | IC50 (Ramos-2G6-4C10): > 5000 nM | IC50 (U-87 MG): > 5000 nM | IC50 (MZ2-MEL): > 5000 nM | IC50 (MOLT-4): > 5000 nM | IC50 (MFM-223): > 5000 nM | IC50 (HCE-T): > 5000 nM | IC50 (KARPAS-45): > 5000 nM | IC50 (Detroit 562): > 5000 nM | IC50 (RS4-11): > 5000 nM | IC50 (CTV-1): > 5000 nM | IC50 (GR-ST): > 5000 nM | IC50 (TE-6): > 5000 nM | IC50 (COLO-792): > 5000 nM | IC50 (SF-539): > 5000 nM
